Experimental data published in patent US8778966B2, “Quinolinone derivatives as PARP and tank inhibitors” (Janssen Pharmaceutica, NV, priority 2007, dated 2014).

Assays:
Human PARP-1 enzyme = target: T1, Human PARP-1 enzyme (Homo sapiens, UniProt P09874); experiment: In vitro Scintillation Proximity Assay (SPA) for PARP-1 inhibitory activity; assay type: biochemical; settings: read-out: in vitro SPA assay PARP-1 pIC50 (converted)
T1 construct: purchased Trevigen
Procedure: Compounds of the present invention were tested in an in vitro assay based on SPA technology (proprietary to GE healthcare).
In principle, the assay relies upon the well established SPA technology for the detection of poly(ADP-ribosyl)ation of biotinylated target proteins, i.e histones. This ribosylation is induced using nicked DNA activated PARP-1 enzyme and [^3H]-nicotinamide adenine dinucleotide ([^3H]-NAD^+) as ADP-ribosyl donor.
Histones (type II-A, supplier: Sigma) were biotinylated using the biotinylation kit of Amersham and stored aliquoted at −20° C. A stock solution of 100 mg/ml SPA poly(vinyl toluene) (PVT) beads (supplier: Amersham) was made in PBS. A stock solution of 61.6 nM [^3H]-NAD^+ was made by adding [^3H]-NAD^+ (0.1 mCi/ml, supplier: Perkin Elmer) to incubation buffer (50 mM Tris/HCl, pH 8; 0.2 mM DTT; 4 mM MgCl2). A solution of 4 mM NAD^+ (supplier: Sigma) was made. Human PARP-1 enzyme was obtained from Trevigen. Biotinylated histones and PVT-SPA beads were mixed and pre-incubated for 30 min. at room temperature. PARP-1 enzyme (concentration was lot dependent) was mixed with the nicked DNA and the mixture was pre-incubated for 30 min. at 4° C. Equal parts of this histones/PVT-SPA beads solution and PARP-1 enzyme/DNA solution were mixed and 75 μl of this mixture together with 1 μl of compound in DMSO and 25 μl of [^3H]-NAD^+ was added per well into a 96-well microtiterplate. The final concentrations in the incubation mixture were 2 μg/ml for the biotinylated histones, 2 mg/ml for the PVT-SPA beads, 0.25 μg/ml for the nicked DNA and between 0.1-0.2 μg/ml for the PARP-1 enzyme. After incubation of the mixture for 20 min. at room temperature, the reaction was terminated by adding 100 μl of 4 mM NAD^+ in water (final concentration 2 mM) and plates were mixed. The beads were sedimented by centrifugation (10 min, 800 rpm). and plates transferred to a TopCountNXT™ (Packard) for scintillation counting, values were expressed as counts per minute (cpm). For each experiment, controls (containing PARP-1 enzyme and DMSO without compound), a blank incubation (containing DMSO but no PARP-1 enzyme, no DNA or compound) and samples (containing PARP-1 enzyme, DNA and compound dissolved in DMSO) were run in parallel. All compounds tested were dissolved and eventually further diluted in DMSO. A dose-response curve was made wherein the compounds were tested at concentrations between 10^−5M and 3×10^−9M. In each test, the blank value was subtracted from both the control and the sample values. The control sample represented maximal PARP-1 enzyme activity. For each sample, the amount of cpm was expressed as a percentage of the mean cpm value of the controls. When appropriate, IC50-values (concentration of the drug, needed to reduce the PARP-1 enzyme activity to 50% of the control) were computed using linear interpolation between the experimental points just above and below the 50% level. Herein the effects of test compounds are expressed as pIC50 (the negative log value of the IC50-value). As a reference compound, 4-amino-1,8-naphthalimide was included to validate the SPA assay.

HCT116 cells = experiment: Antiproliferative activity, Alamar Blue assay, HCT116 cells; assay type: cell-based, human; settings: Homo sapiens, HCT-116, HCT116 cells; read-out: HCT116 antiproliferative activity pIC50 (converted)
Procedure: Human colon carcinoma HCT116 cells obtained from the ATCC were cultured in McCoy's 5 A medium supplemented with 2 mM L-Glutamine, 50 μg/ml gentamicin and 10% heat inactivated fetal calf serum.
(§1) Resazurin was purchased from Aldrich (Prod. No. 199303). Potassium ferrocyanide, potassium ferricyanide, KH2PO4 and K2HPO4 were purchased from Sigma (Prod. Nos. P9387, P8131, P5655 and P8281, respectively).
(§2) Potassium Phosphate Buffer 0.1 M (PPB) was made as follows: 2.72 gram KH2PO4 and 13.86 gram K2HPO4 were dissolved in 500 ml milli-Q H2O, the pH was adjusted to pH 7.4 and the volume was brought to 1 litre with milli-Q H2O; the buffer was filter sterilised and stored at room temperature. Resazurin stock solution (PPB-A) was prepared fresh by dissolving 45 mg resazurin in 15 ml PBS. 30 mM potassium ferricyanide (PPB-B) was prepared by dissolving 0.987 gram potassium ferricyanide in 100 ml PPB. 30 mM potassium ferrocyanide (PPB-C) was prepared by dissolving 1.266 gram potassium ferrocyanide in 100 ml PPB.
(§3) Mixture of PPB-A, PPB-B and PPB-C was prepared by mixing equal volumes of the respective solutions. Resazurin work solution (herein termed “Alamar Blue” solution) was prepared by diluting said mixture 20×(vol/vol) in PPB and filter sterilising; the Alamar Blue solution could be kept at 4° C. for a maximum of 2 weeks.
(§4) For experiments in 384 wells plates the cells were seeded at a density of 4.5×10^3 cells/ml in Falcon 384-well culture plates (Life Technologies, Merelbeke, Belgium), black with clear bottom, in 45 μl culture medium. Cells were allowed to adhere to plastic for 24 hr. The tested compound was pre-diluted (1/50 in culture medium) and 5 μl pre-diluted compound was added to the wells. Following 4-day incubation, 10 μl of the Alamar Blue solution was added to each well and the cells were further incubated for 4 hrs (HCT116) or 24 hrs (PC-3) at 37° C. The fluorescence intensity was measured for each well on a Fluorescence plate reader (Fluorskan, Labsystems, 540 nm excitation and 590 nm emission)
(§5) The antiproliferative activity was calculated as percentage of remaining viable cells in treated versus control (untreated cells) conditions. Within an experiment, the result for each experimental condition is the mean of 3 replicate wells. When appropriate, the experiments were repeated to establish full concentration-response curves. When appropriate, IC50-values (concentration of the drug, needed to reduce cell growth to 50% of the control) were computed using probit analysis for graded data (Finney, D. J., Probit Analyses, 2nd Ed. Chapter 10, Graded Responses, Cambridge University Press, Cambridge 1962). Herein the effects of test compounds are expressed as pIC50 (the negative log value of the IC50-value) (see Table 2).

PC-3 cells = experiment: Antiproliferative activity, Alamar Blue assay, PC-3 cells; assay type: cell-based, human; settings: Homo sapiens, PC-3, PC3 cells; read-out: PC3 antiproliferative activity pIC50 (converted)
Procedure: Human prostate cancer PC-3 cells obtained from the ATCC were cultured in HAM′S F12 medium supplemented with 1 mM Sodium Pyruvate, 1.5 g/L Sodium Bicarbonate, 50 μg/ml gentamicin, non-essential amino acids and 10% fetal calf serum.
as §1, §2, §3, §4, §5

PC3 cells = experiment: EB1 Comet (microtubule disruption) assay; assay type: cell-based, human; settings: Homo sapiens, PC-3, 1 h, 1 hour treatment, read-out: EB1 pLAC (converted)
Procedure: The Eb1 Comet assay relies on the detection of the Eb1 protein at the plus end of polymerizing microtubules (Mimori-Kiyosue, 2000) using indirect immunofluorescence. Disruption of microtubule dynamics through de-polymerization or stabilization results in a de-localization of Eb1 from the growing microtubule ends and this is visualized by the disappearance of Eb1 containing cytoplasmic foci.
Briefly, human prostate cancer PC3 cells obtained from the American Type Culture Collection were grown in 96-well plates (Greiner, cat. no. 655090) in HAM's F12 medium as recommended by the provider (ATCC). The cells were treated for 1 hour at 37° C. with compounds dissolved in DMSO (0.6% final DMSO concentration). The culture medium was then removed by aspiration and the cells were fixed by adding cold methanol (−20 C). After a 15 min. incubation at −20 C, the cells were washed twice with DPBS (Gibco) containing 0.5% Triton X-100. Mouse Eb1 antibody (BD Transduction Laboratories, cat. no. 610534) was added to the cells (1/250 dilution in DPBS containing 1% BSA) and incubated overnight at room temperature. The antibody was subsequently removed and the cells washed twice with DPBS, 0.5% Triton X-100. Secondary goat anti-mouse antibody conjugated to Alexa 488 fluorescent dye (Molecular Probes) was added at a 1/500 dilution in DPBS, 1% BSA and incubated for 1 hour at 37 C. The cells were washed twice with DPBS, 0.5% Triton X-100 and then DPBS containing 0.5% Triton X-100 and 1/5000 Hoechst 33342 (Molecular Probes) was added. Microscopy based Eb1 foci visualization was carried out using an IN Cell Analyser 1000 (Amersham Biosciences) using a 20× objective. Compound dependent microtubule disruption was visually determined by the disappearance in Eb1 foci. The lowest active concentration (LAC) was determined as the concentration where Eb1 foci were absent in at least 50% of the treated cells.

T1 sequence (P09874 whole entry): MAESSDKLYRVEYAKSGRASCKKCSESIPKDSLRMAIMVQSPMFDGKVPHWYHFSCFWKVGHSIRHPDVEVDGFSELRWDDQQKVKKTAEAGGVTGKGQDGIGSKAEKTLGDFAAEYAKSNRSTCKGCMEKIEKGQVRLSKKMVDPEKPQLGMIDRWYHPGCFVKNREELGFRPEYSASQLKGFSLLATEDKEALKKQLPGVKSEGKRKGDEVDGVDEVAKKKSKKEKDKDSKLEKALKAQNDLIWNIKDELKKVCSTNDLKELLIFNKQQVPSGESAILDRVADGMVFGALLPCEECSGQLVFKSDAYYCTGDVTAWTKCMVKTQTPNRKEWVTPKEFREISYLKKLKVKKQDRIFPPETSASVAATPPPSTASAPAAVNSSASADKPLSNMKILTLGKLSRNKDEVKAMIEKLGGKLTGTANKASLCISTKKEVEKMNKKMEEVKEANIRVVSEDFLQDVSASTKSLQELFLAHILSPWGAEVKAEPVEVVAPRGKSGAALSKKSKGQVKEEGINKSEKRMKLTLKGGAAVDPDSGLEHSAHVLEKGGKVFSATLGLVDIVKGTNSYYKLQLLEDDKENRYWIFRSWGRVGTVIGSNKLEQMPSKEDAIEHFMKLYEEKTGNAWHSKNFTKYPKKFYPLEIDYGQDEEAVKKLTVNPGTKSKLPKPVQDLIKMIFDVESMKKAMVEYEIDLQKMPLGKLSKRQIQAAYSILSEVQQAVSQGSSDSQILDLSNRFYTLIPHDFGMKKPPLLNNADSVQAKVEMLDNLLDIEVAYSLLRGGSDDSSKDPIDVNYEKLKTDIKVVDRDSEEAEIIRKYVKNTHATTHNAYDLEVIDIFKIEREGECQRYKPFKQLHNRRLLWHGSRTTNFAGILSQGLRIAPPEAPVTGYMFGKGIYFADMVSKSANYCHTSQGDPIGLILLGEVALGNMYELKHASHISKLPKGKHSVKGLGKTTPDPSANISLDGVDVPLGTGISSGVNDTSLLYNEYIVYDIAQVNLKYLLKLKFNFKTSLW

Row | Compound | melting point | IC50 (Human PARP-1 enzyme) | IC50 (HCT116 cells) | IC50 (PC-3 cells) | minimal effective concentration (PC3 cells)
1 | CCc1cc2ccc(C(C)(C#N)Cc3cccc(CC#N)c3)cc2[nH]c1=O (centres unmarked) | 150 °C |  |  |  | 
2 | CCc1cc2ccc(C(C)(C#N)Cc3cccc(C#N)c3C)cc2[nH]c1=O (centres unmarked) [Compound 4] | 174 °C |  |  |  | 
3 | CCc1cc2ccc(C(C)(C#N)Cc3ccc(OCCCN4CCOCC4)c(C#N)c3)cc2[nH]c1=O (centres unmarked) [Compound 5] | 153 °C |  |  |  | 
4 | Cc1cc2ccc([C@](C)(C#N)[C@H]3CCCc4ccccc43)cc2[nH]c1=O [Compound 383] |  | 0.501 µM | 0.501 µM | 1.26 µM | 3.16 µM
5 | Cc1cc2ccc(C(C)(C#N)Cc3cccc(C#CC(C)(C)O)n3)cc2[nH]c1=O (centres unmarked) [Compound 401] |  | 0.398 µM | 3.98 µM | 5.01 µM | 3.16 µM
